Drawing on US7767665B2, “1,3-benzothiazinone derivatives and use thereof” (Takeda Pharmaceutical Company Limited, priority 2001, dated 2010), this text covers minimal effective concentration and melting point for 31 compounds.

The structures appear in SMILES notation. Where a name gives a salt, the structure may show the parent alone.

What is called minimal effective concentration is the lowest level tested that produced the effect sought. A low value points to an effect from little substance. Broadly, the melting point is the temperature of the solid-liquid transition.

Data set [1] has as its system primary heart muscle cells from newborn rats. Description: Inhibitory activity on heart muscle cell apoptosis (serum-free culture, viable cell number by WST-8). Format: cell-based, Wister rats. As to conditions: Rattus norvegicus, 96 h; mean of three independent experiments; concentration required to increase the mean viable cell number by 50% as compared with that in the absence of test compounds; serum-free Medium 199, 4 days. The text has this: Inhibitory Activity on Heart Muscle Cell Apoptosis
Newborn rats (within 1 day afterbirth) were obtained from pregnant Wister rats purchased from Charles River, anesthetized under ether, and sterilized with 70% ethanol, and then their hearts were excised with tweezers. The excised hearts were washed with a phosphate-buffered physiological saline (T900; Takara) and cut into pieces with surgical scissors. These tissue pieces were washed 4 to 5 times with a phosphate-buffered physiological saline to remove a majority of blood-derived non-heart muscle cells. To the tissue pieces derived from 10 newborns, 5 ml of enzyme solution (1.25 mg trypsin (Difco) and 0.25 mg collagenase (Sigma) per ml of phosphate-buffered saline (PBS)) was added and the mixture was stirred with a stirrer at 37° C. for 15 minutes. Another 2.5 ml enzyme solution was then added twice repeatedly at a 15-minutes interval. Then, Medium 199 (Gibco) containing 10% fetal calf serum (Biowiker) was added in a half volume of the enzyme solution to terminate the enzyme reaction. The cells were filtered through a Cell Strainer (Falcon) and then centrifuged at 400×g for 5 minutes, whereby the cells were collected.
The cells thus collected from 10 newborns were suspended in 50 ml Medium 199 containing 10% fetal calf serum, plated onto 100 mm Petri dishes (Iwaki) in a volume of 10 ml/dish and cultured for 1 hour in a CO2 incubator set at 5% CO2 and 37° C. The cells were then recovered, filtered through a Cell Strainer and centrifuged at 400×g for 5 minutes to collect the primary heart muscle cells derived from newborn rats.
Then, the heart muscle cells from 10 newborn rats were suspended in 2 ml low-isotonic solution (prepared by dissolving 8.29 g NH4Cl, 1.0 g KHCO3, 37 mg EDTA/2Na (ethylenediaminetetraacetic acid disodium) (Dojindo) in 1 L of water) and left for 3 minutes to disrupt erythrocytes. After 10 ml Medium 199 containing 10% fetal calf serum was added thereto, the primary heart muscle cells from newborn rats were collected by centrifugation at 400×g for 5 minutes. The cells were suspended in Medium 199 containing 10% fetal calf serum and then filtered through a cell strainer. After 0.3% trypan blue was added to, and mildly mixed with, an aliquot of the resulting cell suspension, the number of heart muscle cells was counted on an erythrocyte counting plate.
The primary heart muscle cells from newborn rats were suspended at a density of 3×10^6 cells/ml in Medium 199 containing 10% fetal calf serum, put onto a 96-well plate in a volume of 0.1 ml/well, and then cultured in a CO2 incubator set at 5% CO2 and 37° C. After the plate was stirred with a micromixer (Taiyo Kagaku Kogyo), the medium was exchanged 3 times with serum-free Medium 199, and then test compounds were added thereto. The cells were cultured for additional 4 days to induce apoptosis. Then, fetal calf serum was added thereto at a concentration of 10%, and the cells were further cultured for about 17 hours in a CO2 incubator set at 5% CO2 and 37° C. Finally, the number of viable cells was determined with Cell Counting Kit (Dojindo) using WST-8 (2-(2-methoxy-4-nitrophenyl)-3-(4-nitrophenyl)-5-(2,4-disulfophenyl)-2H-tetrazolium, monosodium salt) as the coloring substrate to determine the inhibition of the heart muscle cell apoptosis.
The above-mentioned experiment was triplicated in an independent manner.
The Mean minimal effective concentration (±SD) was shown for each test compound (Compounds 1 to 5 obtained in Reference Examples) in Table 1. In Table 1, the minimal effective concentration is defined as the concentration required to increase the mean viable cell number by 50% as compared with that in the absence of test compounds.
For orientation: Formazan colour is commonly taken as a measure of viable cells.

`O=c1nc(-c2cnccn2)sc2ccccc12` [Example 7, 2-Pyrazinyl-4H-1,3-benzothiazine-4-one] came in with a melting point of 240.7 to 241.7 °C. The compound also gave a minimal effective concentration in data set [1] of 0.021 µM.

Take `O=c1nc(-c2ccccn2)sc2cc(Cl)ccc12` [Example 10, 7-Chloro-2-(2-pyridyl)-4H-1,3-benzothiazine-4-one]: the melting point fell in the range of 245.3 to 245.6 °C. In addition, the minimal effective concentration in data set [1] is 0.023 µM.

The compound `O=c1nc(-c2ccccn2)sc2cc(F)ccc12` [Example 19, 7-Fluoro-2-(2-pyridyl)-4H-1,3-benzothiazine-4-one] displayed a melting point of 250 to 250.2 °C. The compound further registered a minimal effective concentration in data set [1] of 0.025 µM.

`O=c1nc(-c2ccccn2)sc2ccc(F)cc12` [Example 20, 6-Fluoro-2-(2-pyridyl)-4H-1,3-benzothiazine-4-one] gave a melting point of 239.9 to 240.4 °C. The same compound had a minimal effective concentration in data set [1] of 0.038 µM.

Compound `O=c1nc(-c2ccccn2)sc2cccc(F)c12` [Example 21, 5-Fluoro-2-(2-pyridyl)-4H-1,3-benzothiazine-4-one] had a melting point of 256.5 to 257.2 °C. In data set [1], this compound gave a minimal effective concentration of 0.03 µM.

Consider `COC(=O)c1ccc(-c2nc(=O)c3ccccc3s2)nc1` [Example 28, Methyl 6-(4-oxo-4H-1,3-benzothiazin-2-yl)nicotinate], for which the minimal effective concentration in data set [1] was determined as 0.025 µM.

`Cc1ccnc(-c2nc(=O)c3ccc(Cl)cc3s2)c1` [Example 29, 7-Chloro-2-(4-methyl-2-pyridyl)-4H-1,3-benzothiazine-4-one]: the melting point is 246.2 to 246.7 °C. The compound further displayed a minimal effective concentration in data set [1] of 0.035 µM.

`O=c1nc(-c2cnccn2)sc2cc(Cl)ccc12` [Example 30, 7-Chloro-2-(2-pyrazyl)-4H-1,3-benzothiazine-4-one] returned a melting point of 240.6 to 240.9 °C. Also, the minimal effective concentration in data set [1] is 0.012 µM.

With `CCCNC(=O)c1ccc(-c2nc(=O)c3ccccc3s2)nc1` [Example 37, 6-(4-Oxo-4H-1,3-benzothiazin-2-yl)-N-propylnicotinamide], the melting point fell in the range of 268 to 268.6 °C. Further, the minimal effective concentration in data set [1] came to 0.037 µM.

`NC(=O)c1cccc(-c2nc(=O)c3ccccc3s2)n1` [Example 38, 6-(4-Oxo-4H-1,3-benzothiazin-2-yl)-2-pyridinecarboxamide] displayed a melting point of 294.6 to 294.9 °C. The compound also displayed a minimal effective concentration in data set [1] of 0.013 µM.

Take `Cc1ccc2c(=O)nc(-c3ccccn3)sc2c1` [Example 39, 7-Methyl-2-(2-pyridyl)-4H-1,3-benzothiazine-4-one]: the melting point was 225 to 225.2 °C. In data set [1], this compound registered a minimal effective concentration of 0.037 µM.

On to `O=c1nc(-c2cccc(CO)n2)sc2ccccc12` [Example 40, 2-[6-(Hydroxymethyl)-2-pyridyl]-4H-1,3-benzothiazine-4-one], for which the melting point lay in the range of 208.2 to 208.7 °C. Moreover, in data set [1], the minimal effective concentration came to 0.044 µM.

Turning to `CSc1cccc(-c2nc(=O)c3ccccc3s2)n1` [Example 43, 2-(6-Methylthio-2-pyridyl)-4H-1,3-benzothiazine-4-one], the melting point lay in the range of 207.2 to 207.8 °C. The compound also gave a minimal effective concentration in data set [1] of 0.053 µM.

Regarding `O=c1nc(-c2ccc(CO)cn2)sc2ccccc12` [Example 48, 2-[5-(hydroxymethyl)-2-pyridyl]-4H-1,3-benzothiazine-4-one], the melting point lay in the range of 246.9 to 247.9 °C. The minimal effective concentration in data set [1] was 0.043 µM.

`O=c1nc(-c2ccc(C(F)(F)F)cn2)sc2ccccc12` [Example 49, 2-[5-(trifluoromethyl)-2-pyridyl]-4H-1,3-benzothiazine-4-one] returned a melting point of 207.2 to 207.4 °C. In addition, the minimal effective concentration in data set [1] worked out at 0.043 µM.

In turn, `CCCNC(=O)c1cccc(-c2nc(=O)c3ccccc3s2)n1` [Example 50, 6-(4-Oxo-4H-1,3-benzothiazin-2-yl)-N-propyl-2-pyridinecarboxamide] returned a melting point of 179.7 to 181.4 °C. For the same compound, in data set [1], the minimal effective concentration amounted to 0.02 µM.

`O=C(NCc1ccccc1)c1cccc(-c2nc(=O)c3ccccc3s2)n1` [Example 51, N-Benzyl-6-(4-oxo-4H-1,3-benzothiazin-2-yl)-2-pyridinecarboxamide] registered a melting point of 197.1 to 197.9 °C. The same compound returned a minimal effective concentration in data set [1] of 0.034 µM.

As for `CCCN(C(=O)c1cccc(-c2nc(=O)c3ccccc3s2)n1)C(=O)N(C)C` [Example 52, N,N-Dimethyl-N′-[[6-(4-oxo-4H-1,3-benzothiazin-2-yl)-2-pyridyl]carbonyl]-N′-propylurea], the melting point fell in the range of 190.8 to 192.4 °C. Further, the minimal effective concentration in data set [1] amounted to 0.01 µM.

Regarding `CN(C)C(=O)N(Cc1ccccc1)C(=O)c1cccc(-c2nc(=O)c3ccccc3s2)n1` [Example 53, N-Benzyl-N′,N′-dimethyl-N-[[6-(4-oxo-4H-1,3-benzothiazin-2-yl)-2-pyridyl]carbonyl]-urea], the melting point fell in the range of 222.2 to 224 °C. This compound also showed a minimal effective concentration in data set [1] of 0.032 µM.

Consider `COc1ccc2c(=O)nc(-c3ccccn3)sc2c1` [Example 54, 7-methoxy-2-(2-pyridyl)-4H-1,3-benzothiazine-4-one], for which the melting point lay in the range of 200 to 202.2 °C. The compound also returned a minimal effective concentration in data set [1] of 0.037 µM.

`O=c1nc(-c2cc[n+]([O-])cc2)sc2ccccc12` [Example 55] gave a melting point of 248.2 to 251.7 °C. Further, in data set [1], the minimal effective concentration amounted to 0.016 µM.

On to `NCCCCCCNC(=O)c1cccc(-c2nc(=O)c3ccccc3s2)n1` [Example 107, N-(6-Aminohexyl)-6-(4-oxo-4H-1,3-benzothiazin-2-yl)-2-pyridinecarboxamide hydrochloride], for which the minimal effective concentration in data set [1] is 0.012 µM.

As for `CC(C)(C)OC(=O)CCc1cc(-c2nc(=O)c3ccccc3s2)nc(S(C)(=O)=O)c1` [Example 345, tert-Butyl 3-[2-(methylsulfonyl)-6-(4-oxo-4H-1,3-benzothiazin-2-yl)-4-pyridyl]propanoate], the melting point was 223 °C (dec.).

`CS(=O)(=O)c1cc(CCC(=O)O)cc(-c2nc(=O)c3ccccc3s2)n1` [Example 346, 3-[2-(Methylsulfonyl)-6-(4-oxo-4H-1,3-benzothiazin-2-yl)-4-pyridyl]propionic acid] showed a melting point of 305.5 to 306 °C.

Compound `Cc1nc(-c2nc(=O)c3ccccc3s2)cs1` [Example 347, 2-(2-Methyl-1,3-thiazol-4-yl)-4H-1,3-benzothiazin-4-one] showed a melting point of 219 to 220 °C.

`O=c1nc(-c2nccs2)sc2ccccc12` [Example 348, 2-(1,3-thiazol-2-yl)-4H-1,3-benzothiazin-4-one]: the melting point lay in the range of 229.1 to 229.8 °C.

`Cc1csc(-c2nc(=O)c3ccccc3s2)n1` [Example 349, 2-(4-Methyl-1,3-thiazol-2-yl)-4H-1,3-benzothiazin-4-one] showed a melting point of 209.6 to 210.7 °C.

In turn, `CC(=O)N1CCCC1c1ccnc(-c2nc(=O)c3ccccc3s2)c1` (stereo not drawn) [Example 351, 2-[4-(1-Acetyl-2-pyrrolidinyl)-2-pyridyl]-4H-1,3-benzothiazine-4-one] yielded a melting point of 206.2 to 207.4 °C.

In the case of `CC(C)(C)OC(=O)N1CCCC1c1ccnc(-c2nc(=O)c3ccccc3s2)c1` (stereo not drawn) [Example 352, tert-Butyl 2-[2-(4-oxo-4H-1,3-benzothiazin-2-yl)-4-pyridyl]-1-pyrrolidinecarboxylate], the melting point lay within 194.8 to 195.8 °C.

`CC(C)(C)OC(=O)CCc1cc(C#N)nc(-c2nc(=O)c3ccccc3s2)c1` [Example 355, tert-Butyl 3-[2-cyano-6-(4-oxo-4H-1,3-benzothiazin-2-yl)-4-pyridyl]propanoate] displayed a melting point of 189.9 to 190.7 °C.

Take `N#Cc1cc(CCC(=O)O)cc(-c2nc(=O)c3ccccc3s2)n1` [Example 356, 3-[2-Cyano-6-(4-oxo-4H-1,3-benzothiazin-2-yl)-4-pyridyl]propanoate]: the melting point was 271 to 272.7 °C.
